Source: patent publication US20080241081A1, “AMIDE COMPOUND OR SALT THEREOF, AND BIOFILM REMOVER CONTAINING THE SAME” (priority 2006, published 2008)

Columns and labels:
[1] = system: biofilm formed by Pseudomonas aeruginosa (gfp expression PAO1-strain); assay: Evaluation test for removing biofilms formed by Pseudomonas aeruginosa (flow cell system, fluorescence confocal microscope); assay type: cell-based; conditions: test liquid 100 μM compound; for state of deposited biofilm observed over time: flow 200 μL per minute, observed after 3, 4, 5, 6, 7 and 10 days, compared with DMSO control test liquid; for biofilm removal effect (conclusion): flow cell system, up to 10 days
Method: Each of the amide compounds (Compound 1a-1, 1a-2, 1b-1 and 1c-1) produced in Production Examples 1 to 4 was evaluated for its biofilm removal effect, using the flow cell system shown in FIG. 1.
A culture medium bottle (1), a peristaltic pump (2), a glass cell (4) and a waste fluid bottle (5) are connected via a silicon tube (6) so that a culture medium (9) is supplied to the glass cell from the culture medium bottle (1) using the peristaltic pump (2). The system includes an air removal section (3) between the peristaltic pump (2) and a turncock (7a), for removing the entrained air. All tools in the flow cell system are sterilized using gamma-rays or an autoclave.
As specifically described later, the effect for removing biofilms is examined in the following manner. Bacteria are cultured in a glass cell (4) to grow a biofilm on the inner wall of the cell, and a test liquid containing one of the amide compounds is applied to the biofilm. Then the condition of the biofilm is observed to evaluate the biofilm-removing effect of the compound using a fluorescence confocal microscope (Leica TCS SP2: product of Leica).
The bacteria was prepared by inserting a pTdk-LVAgfp plasmid into a Pseudomonas aeruginosa PAO1-strain using the electroportion method so that the Pseudomonas aeruginosa PAO1-strain is transformed to express Green Fluorescent Protein (hereinafter referred to as “gfp expression PAO1-strain”) (see Teresa R. et al., Applied and Environmental Microbiology, April 2001, p. 1865-1873).
A 30 mM glucose-containing FAB culture medium was used for preincubation, and a 0.3 mM glucose-containing FAB culture medium was used for main cultivation.
The glucose-containing FAB culture medium was prepared by adding 200 μg/mL of carbenicillin to an aqueous solution containing 30 mM glucose or 0.3 mM glucose, 15 mM ammonium sulfate, 33.7 mM disodium hydrogenphosphate, 22.1 mM dipotassium hydrogenphosphate, 51.7 mM sodium chloride, 0.47 mM magnesium chloride, 0.08 mM calcium chloride and the following 0.1% trace metal solution.
An aqueous solution containing 1.16 mM calcium sulfate dihydrate, 0.72 mM iron sulfate heptahydrate, 0.08 mM manganous sulfate monohydrate, 0.08 mM copper sulfate pentahydrate, 0.07 mM zinc sulfate heptahydrate, 0.04 mM cobalt sulfate heptahydrate, 0.04 mM […], and 0.08 mM boric acid.
A gfp expression PAO1-strain was inoculated in a 30 mM glucose-containing FAB culture medium, and was subjected to shake culture at 37° C. in an isothermal tank overnight. The obtained overnight culture liquid was diluted by a 30 mM glucose-containing FAB culture medium to OD590=0.1. […]

[2] = system: biofilm formed by Porphyromonas gingivalis 381-strain; assay: Evaluation test for removing biofilms formed by periodontitis pathogenic bacteria (flow cell system, optical microscope); assay type: cell-based; conditions: same experiment as Experiment Example 1, Porphyromonas gingivalis 381-strain, 10 days
Method: The same experiment as in Experiment Example 1 was conducted except that periodontitis pathogenic bacteria Porphyromonas gingivalis 381-strain (clinical bacteria) was used in place of Pseudomonas aeruginosa PAO1-strain. […] The gradual exfoliation of the deposited biofilm from the cell wall, and the flowing flakes of biofilm exfoliation in the cell were also visually observed.

autoinducer = conditions: as taught by Patent Document 1 (JP 2006-512290); cited from earlier work

Row | SMILES | state of deposited biofilm observed over time [1] | state of biofilm (removal) [2] | biofilm removal effect (conclusion) [1] | autoinducer agonist activity (autoinducer)
1 | CCCCCCCCCC(=O)CC(=O)Nc1ccccc1O [Comparative Compound 1, reference compound] | a similar biofilm formation to that of the control test using the control test liquid was observed |  |  | 
2 | CCCCCCCCCC(=O)CC(=O)NN1CCCCC1 [Compound 1a-2, N-(piperidine-1-yl)-3-oxododecanoyl amide] | gradual disappearance of the deposited biofilm with time was observed | nearly the entire biofilm was removed in 10 days | effective for removing deposited biofilms | 
3 | CCCCCCCCCC(=O)CC(=O)NN1CCCCC1 [drawing 7] |  |  |  | exhibits autoinducer agonist activity
4 | CCCCCCCCCC(=O)CC(=O)NN1CCCC1 [Compound 1a-1, N-(pyrrolidin-1-yl)-3-oxododecanoyl amide] |  | nearly the entire biofilm was removed in 10 days | effective for removing deposited biofilms | 
